The experiment concerns Plasmodium falciparum. Briefly: Antiplasmodial activity against chloroquine-sensitive Plasmodium falciparum 3D7 by [3H]phenylalanine uptake. The experiment is classed as functional, organism-based.

In the case of `COc1cc([C@@H]2Oc3c(OC)cc(/C=C/COC(=O)c4ccccc4)cc3[C@H]2COC(=O)c2ccccc2)ccc1O` (racemic) [DEHYDRODICONIFERYL ALCOHOL DIBENZOATE], the IC50 (as a rule, the concentration that inhibits the measured activity by half) was found to be 12 µM.

(Values after ChEMBL document CHEMBL1150170, “An antiplasmodial lignan from Euterpe precatoria” (J Nat Prod, 2002).)
